# Test results: PubChem BioAssay (NCI)
#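 In this assay, cells in 96-well plates receive the compound at five concentrations for 48 hours. Endpoints are linearly interpolated between the surrounding concentrations. The concentration for full growth arrest is given as TGI.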
# Tested on: HCT-15 colon
# Assay: DTP human tumour cell line panel, 48 h
row,Compound,TGI [µM]
1,C=CCN(C(=O)CNC(=O)C(F)(F)F)c1cc(OCc2ccccc2)c2c(c1)c(C)cn2S(=O)(=O)c1ccccc1,> 100
2,CSc1ccsc1-c1sc(-c2cc(SC)c(-c3sc(-c4cc(SC)c(-c5sccc5SC)s4)cc3SC)s2)cc1SC,> 100
3,COc1cccc(C2c3cc4c(cc3OC(C)(N3CCCC3)C2C)OCO4)c1 (stereo unspecified),44.2
4,CCSC1=N/C(=C\c2ccc(N(C)C)cc2)C(Cl)=N1,> 100
5,COC1(OC)CCCc2c1no[n+]2[O-],> 100
6,O=C(CC(C(=O)c1ccsc1)c1ccccc1)c1ccccc1 (stereo unspecified),> 100
7,CC1(C)OC[C@@H]([C@H](O)C2C=CC(=O)S2)O1 (stereo partly specified),35.5
8,Cc1cc(C(F)(F)F)cc(-n2nc(NS(=O)(=O)c3cc(C)c(Cl)cc3S)nc2N)n1,> 100
9,O=C1C=C(NCCOCCO)C(=O)c2c(O)ccc(O)c21,57.1
10,CC1CN=C(N(C(=O)Nc2ccccc2)c2ccc(Cl)c(Cl)c2)S1 (stereo unspecified),> 100
11,CC(=O)O[C@H]1CC[C@@]2(C)C(=CC[C@H]3[C@@H]4C/C(=C\c5ccc(N(C)C)cc5)[C@H](OC(C)=O)[C@@]4(C)CC[C@@H]32)C1,31.9

# Tested on: SR leukemia
# Assay: DTP human tumour cell line panel, 48 h
row,Compound,TGI [µM]
1,Cn1c2c(c3ccccc31)CCN1C(=O)CN(C(=O)C3CCCCC3)CC21 (stereo unspecified),> 100
2,COC(=O)C(C(=O)Cc1ccccc1[N+](=O)[O-])C(=O)OC,> 100
3,CCOC(=O)c1sc2c(c1OC(=O)c1ccc(OC)cc1)c(=O)n(-c1ccccc1)c(=S)n2-c1ccccc1,93.2
4,O=C(Cn1c(-c2ccccc2)cc2ccccc21)N1CCCC1,> 100
5,CN(C)/N=C1/CCC(C(F)(F)F)(C(F)(F)F)O1,> 100
6,[N-]=[N+]=NCc1nc(N)c2c3c(sc2n1)CCCC3,> 100
7,c1ccc2c(c1)SCCC2NC1=NCCO1 (stereo unspecified),> 100
8,COc1cccc(C2c3cc4c(cc3OC(C)(N3CCCC3)C2C)OCO4)c1 (stereo unspecified),> 100
9,COC1(OC)CCCc2c1no[n+]2[O-],> 100
10,O=C(CC(C(=O)c1ccsc1)c1ccccc1)c1ccccc1 (stereo unspecified),> 100
11,Cc1cc(C(F)(F)F)cc(-n2nc(NS(=O)(=O)c3cc(C)c(Cl)cc3S)nc2N)n1,> 100
12,CC1CN=C(N(C(=O)Nc2ccccc2)c2ccc(Cl)c(Cl)c2)S1 (stereo unspecified),> 100
13,CC(=O)O[C@H]1CC[C@@]2(C)C(=CC[C@H]3[C@@H]4C/C(=C\c5ccc(N(C)C)cc5)[C@H](OC(C)=O)[C@@]4(C)CC[C@@H]32)C1,> 100

# Tested on: DU-145 prostate
# Assay: DTP human tumour cell line panel, 48 h
row,Compound,TGI [µM]
1,Cn1c2c(c3ccccc31)CCN1C(=O)CN(C(=O)C3CCCCC3)CC21 (stereo unspecified),> 100
2,CC(=O)OCC1OC(OC2CC3C(C)(C)C(O)CC[C@]3(C)C3CCC45CC4(CCC5[C@@H](C)CC(O)C(O)C(C)(C)O)[C@]23C)C(O)C(O)C1O (stereo partly specified),> 10
3,C=C(Nc1nc2ccc(C)cc2s1)C(=O)C(CC)C(=O)C(CC)CC1C(=O)NC(=O)NC1=O (stereo unspecified),> 100
4,CCOC(=O)c1sc2c(c1OC(=O)c1ccc(OC)cc1)c(=O)n(-c1ccccc1)c(=S)n2-c1ccccc1,> 100
5,O=C(Cn1c(-c2ccccc2)cc2ccccc21)N1CCCC1,> 100
6,Cc1ccc(Cl)c2c(=O)c3ccc(N)cc3sc12,> 100
7,C=CCN1CCC(O)(c2cc(C(=O)OCC)[nH]c2-c2cc(C)no2)C1 (stereo unspecified),> 100
8,CC1CN=C(N(C(=O)Nc2ccc(Cl)c(Cl)c2)c2ccccc2)S1 (stereo unspecified),> 100
9,CN(C)/N=C1/CCC(C(F)(F)F)(C(F)(F)F)O1,> 100
10,CCOC(=O)NNC(=O)NCCCCNC(=O)NNC(=O)OCC,> 100
11,COC(=O)c1nsc(OC)c1Cl,> 100
12,[N-]=[N+]=NCc1nc(N)c2c3c(sc2n1)CCCC3,13.2
13,c1ccc2c(c1)SCCC2NC1=NCCO1 (stereo unspecified),> 100
14,C=CCN(C(=O)CNC(=O)C(F)(F)F)c1cc(OCc2ccccc2)c2c(c1)c(C)cn2S(=O)(=O)c1ccccc1,> 100
15,CSc1ccsc1-c1sc(-c2cc(SC)c(-c3sc(-c4cc(SC)c(-c5sccc5SC)s4)cc3SC)s2)cc1SC,> 100
16,COc1cccc(C2c3cc4c(cc3OC(C)(N3CCCC3)C2C)OCO4)c1 (stereo unspecified),49.6
17,CCSC1=N/C(=C\c2ccc(N(C)C)cc2)C(Cl)=N1,> 100
18,COC1(OC)CCCc2c1no[n+]2[O-],> 100
19,O=C(CC(C(=O)c1ccsc1)c1ccccc1)c1ccccc1 (stereo unspecified),> 100
20,CC1(C)OC[C@@H]([C@H](O)C2C=CC(=O)S2)O1 (stereo partly specified),56.6
21,O=C1C=C(NCCOCCO)C(=O)c2c(O)ccc(O)c21,> 100
22,CC1CN=C(N(C(=O)Nc2ccccc2)c2ccc(Cl)c(Cl)c2)S1 (stereo unspecified),> 100
23,CC(=O)O[C@H]1CC[C@@]2(C)C(=CC[C@H]3[C@@H]4C/C(=C\c5ccc(N(C)C)cc5)[C@H](OC(C)=O)[C@@]4(C)CC[C@@H]32)C1,> 100

# Tested on: BT-549 breast
# Assay: DTP human tumour cell line panel, 48 h
row,Compound,TGI [µM]
1,CC(=O)OCC1OC(OC2CC3C(C)(C)C(O)CC[C@]3(C)C3CCC45CC4(CCC5[C@@H](C)CC(O)C(O)C(C)(C)O)[C@]23C)C(O)C(O)C1O (stereo partly specified),> 10
2,C=C(Nc1nc2ccc(C)cc2s1)C(=O)C(CC)C(=O)C(CC)CC1C(=O)NC(=O)NC1=O (stereo unspecified),> 100
3,O=C(Cn1c(-c2ccccc2)cc2ccccc21)N1CCCC1,> 100
4,Cc1ccc(Cl)c2c(=O)c3ccc(N)cc3sc12,> 100
5,C=CCN1CCC(O)(c2cc(C(=O)OCC)[nH]c2-c2cc(C)no2)C1 (stereo unspecified),> 100
6,N#Cc1c(-c2ccc(Cl)cc2)c(C#N)c(=O)n(NS(=O)(=O)c2ccccc2)c1O,32.8
7,CCOC(=O)NNC(=O)NCCCCNC(=O)NNC(=O)OCC,> 100
8,COC(=O)c1nsc(OC)c1Cl,> 100
9,CC(C)(C)OC/C=C(/CO)[C@@H]1C=C[C@H](O)C1,> 100
10,C=CCN(C(=O)CNC(=O)C(F)(F)F)c1cc(OCc2ccccc2)c2c(c1)c(C)cn2S(=O)(=O)c1ccccc1,> 100
11,CSc1ccsc1-c1sc(-c2cc(SC)c(-c3sc(-c4cc(SC)c(-c5sccc5SC)s4)cc3SC)s2)cc1SC,> 100
12,CCSC1=N/C(=C\c2ccc(N(C)C)cc2)C(Cl)=N1,> 100
13,CC1(C)OC[C@@H]([C@H](O)C2C=CC(=O)S2)O1 (stereo partly specified),47.5
14,O=C1C=C(NCCOCCO)C(=O)c2c(O)ccc(O)c21,> 100
15,CC(=O)O[C@H]1CC[C@@]2(C)C(=CC[C@H]3[C@@H]4C/C(=C\c5ccc(N(C)C)cc5)[C@H](OC(C)=O)[C@@]4(C)CC[C@@H]32)C1,33.4

# Tested on: KM12 colon
# Assay: DTP human tumour cell line panel, 48 h
row,Compound,TGI [µM]
1,Cn1c2c(c3ccccc31)CCN1C(=O)CN(C(=O)C3CCCCC3)CC21 (stereo unspecified),> 100
2,CC(=O)OCC1OC(OC2CC3C(C)(C)C(O)CC[C@]3(C)C3CCC45CC4(CCC5[C@@H](C)CC(O)C(O)C(C)(C)O)[C@]23C)C(O)C(O)C1O (stereo partly specified),> 10
3,C=C(Nc1nc2ccc(C)cc2s1)C(=O)C(CC)C(=O)C(CC)CC1C(=O)NC(=O)NC1=O (stereo unspecified),> 100
4,COc1ccc(OC)c(/C=C(/C#N)c2ccccc2)c1,> 100
5,COC(=O)C(C(=O)Cc1ccccc1[N+](=O)[O-])C(=O)OC,> 100
6,CCOC(=O)c1sc2c(c1OC(=O)c1ccc(OC)cc1)c(=O)n(-c1ccccc1)c(=S)n2-c1ccccc1,> 100
7,Cc1ccc(Cl)c2c(=O)c3ccc(N)cc3sc12,33.4
8,C=CCN1CCC(O)(c2cc(C(=O)OCC)[nH]c2-c2cc(C)no2)C1 (stereo unspecified),> 100
9,CC1CN=C(N(C(=O)Nc2ccc(Cl)c(Cl)c2)c2ccccc2)S1 (stereo unspecified),> 100
10,CN(C)/N=C1/CCC(C(F)(F)F)(C(F)(F)F)O1,48.8
11,N#Cc1c(-c2ccc(Cl)cc2)c(C#N)c(=O)n(NS(=O)(=O)c2ccccc2)c1O,77.8
12,CCOC(=O)NNC(=O)NCCCCNC(=O)NNC(=O)OCC,> 100
13,COC(=O)c1nsc(OC)c1Cl,> 100
14,[N-]=[N+]=NCc1nc(N)c2c3c(sc2n1)CCCC3,2.86
15,CC(C)(C)OC/C=C(/CO)[C@@H]1C=C[C@H](O)C1,> 100
16,c1ccc2c(c1)SCCC2NC1=NCCO1 (stereo unspecified),> 100
17,C=CCN(C(=O)CNC(=O)C(F)(F)F)c1cc(OCc2ccccc2)c2c(c1)c(C)cn2S(=O)(=O)c1ccccc1,> 100
18,CSc1ccsc1-c1sc(-c2cc(SC)c(-c3sc(-c4cc(SC)c(-c5sccc5SC)s4)cc3SC)s2)cc1SC,> 100
19,COc1cccc(C2c3cc4c(cc3OC(C)(N3CCCC3)C2C)OCO4)c1 (stereo unspecified),17.8
20,CCSC1=N/C(=C\c2ccc(N(C)C)cc2)C(Cl)=N1,> 100
21,COC1(OC)CCCc2c1no[n+]2[O-],> 100
22,O=C(CC(C(=O)c1ccsc1)c1ccccc1)c1ccccc1 (stereo unspecified),> 100
23,CC1(C)OC[C@@H]([C@H](O)C2C=CC(=O)S2)O1 (stereo partly specified),30.1
24,Cc1cc(C(F)(F)F)cc(-n2nc(NS(=O)(=O)c3cc(C)c(Cl)cc3S)nc2N)n1,> 100
25,O=C1C=C(NCCOCCO)C(=O)c2c(O)ccc(O)c21,> 100
26,CC1CN=C(N(C(=O)Nc2ccccc2)c2ccc(Cl)c(Cl)c2)S1 (stereo unspecified),> 100
27,CC(=O)O[C@H]1CC[C@@]2(C)C(=CC[C@H]3[C@@H]4C/C(=C\c5ccc(N(C)C)cc5)[C@H](OC(C)=O)[C@@]4(C)CC[C@@H]32)C1,> 100

# Tested on: ACHN renal
# Assay: DTP human tumour cell line panel, 48 h
row,Compound,TGI [µM]
1,Cn1c2c(c3ccccc31)CCN1C(=O)CN(C(=O)C3CCCCC3)CC21 (stereo unspecified),> 100
2,CC(=O)OCC1OC(OC2CC3C(C)(C)C(O)CC[C@]3(C)C3CCC45CC4(CCC5[C@@H](C)CC(O)C(O)C(C)(C)O)[C@]23C)C(O)C(O)C1O (stereo partly specified),> 10
3,C=C(Nc1nc2ccc(C)cc2s1)C(=O)C(CC)C(=O)C(CC)CC1C(=O)NC(=O)NC1=O (stereo unspecified),> 100
4,COc1ccc(OC)c(/C=C(/C#N)c2ccccc2)c1,> 100
5,COC(=O)C(C(=O)Cc1ccccc1[N+](=O)[O-])C(=O)OC,> 100
6,CCOC(=O)c1sc2c(c1OC(=O)c1ccc(OC)cc1)c(=O)n(-c1ccccc1)c(=S)n2-c1ccccc1,> 100
7,O=C(Cn1c(-c2ccccc2)cc2ccccc21)N1CCCC1,> 100
8,Cc1ccc(Cl)c2c(=O)c3ccc(N)cc3sc12,57.5
9,C=CCN1CCC(O)(c2cc(C(=O)OCC)[nH]c2-c2cc(C)no2)C1 (stereo unspecified),> 100
10,CC1CN=C(N(C(=O)Nc2ccc(Cl)c(Cl)c2)c2ccccc2)S1 (stereo unspecified),> 100
11,CN(C)/N=C1/CCC(C(F)(F)F)(C(F)(F)F)O1,> 100
12,N#Cc1c(-c2ccc(Cl)cc2)c(C#N)c(=O)n(NS(=O)(=O)c2ccccc2)c1O,> 100
13,CCOC(=O)NNC(=O)NCCCCNC(=O)NNC(=O)OCC,> 100
14,[N-]=[N+]=NCc1nc(N)c2c3c(sc2n1)CCCC3,14.1
15,CC(C)(C)OC/C=C(/CO)[C@@H]1C=C[C@H](O)C1,> 100
16,c1ccc2c(c1)SCCC2NC1=NCCO1 (stereo unspecified),> 100
17,C=CCN(C(=O)CNC(=O)C(F)(F)F)c1cc(OCc2ccccc2)c2c(c1)c(C)cn2S(=O)(=O)c1ccccc1,> 100
18,CSc1ccsc1-c1sc(-c2cc(SC)c(-c3sc(-c4cc(SC)c(-c5sccc5SC)s4)cc3SC)s2)cc1SC,> 100
19,COc1cccc(C2c3cc4c(cc3OC(C)(N3CCCC3)C2C)OCO4)c1 (stereo unspecified),82.3
20,CCSC1=N/C(=C\c2ccc(N(C)C)cc2)C(Cl)=N1,> 100
21,COC1(OC)CCCc2c1no[n+]2[O-],> 100
22,O=C(CC(C(=O)c1ccsc1)c1ccccc1)c1ccccc1 (stereo unspecified),> 100
23,CC1(C)OC[C@@H]([C@H](O)C2C=CC(=O)S2)O1 (stereo partly specified),49.2
24,Cc1cc(C(F)(F)F)cc(-n2nc(NS(=O)(=O)c3cc(C)c(Cl)cc3S)nc2N)n1,> 100
25,O=C1C=C(NCCOCCO)C(=O)c2c(O)ccc(O)c21,83
26,CC1CN=C(N(C(=O)Nc2ccccc2)c2ccc(Cl)c(Cl)c2)S1 (stereo unspecified),> 100
27,CC(=O)O[C@H]1CC[C@@]2(C)C(=CC[C@H]3[C@@H]4C/C(=C\c5ccc(N(C)C)cc5)[C@H](OC(C)=O)[C@@]4(C)CC[C@@H]32)C1,24.4
